Data: patent publication EP2921486B1, “Compositions and methods for treating beta-amyloid related diseases” (American Life Science Pharmaceuticals, Inc., priority 2009, dated 2011)
Like-named read-outs stand apart in the source and are kept apart here.

Columns and labels:
[1] = system: Aβ(40) and Aβ(42); experiment: Brain, CSF and plasma Aβ ELISA after once-a-day oral gavage for one week (Example 9); assay type: in vivo; conditions: guinea pigs
Excerpt: (§1) Guinea Pigs. Guinea Pigs (Harley strain, average weight 400 g corresponding to animals about 6 weeks old) were obtained from Charles River (Wilmington, MA). The animals were given free access to standard chow and water before and during the experiment.
(§2) Gavage Formulation: Delivering a drug by gavage offers the advantage of accurate dosing but is traumatic and thus only suitable for relatively short dosing periods. Gavage delivery was used for the guinea pig work. E64d was resuspended in DMSO at indicated concentrations (see Figures, and below) and guinea pigs were gavaged daily using a feeding tube. Vehicle control animals were provided DMSO alone.
(§3) Guinea Pig Gavage Dosing: Guinea pigs were gavaged daily for one week. Guinea pigs were lightly anesthetized with isoflurane prior to gavaging. 250 µl of compound solution was gavaged daily per animal and animals were sacrificed 4 hrs after the last dosing.

[2] = system: brain cathepsin B; experiment: Brain cathepsin B activity after once-a-day oral gavage (fluorometric kit); assay type: in vivo; conditions: guinea pigs, once-a-day oral administration
Excerpt: as §1, §2, §3
The brain cathepsin B activity in guinea pigs was measured as follows: Cathepsin B activity was determined using a fluorometric assay kit from Abeam, Inc. (catalog ab65300; Cambridge, MA) as described by the manufacturer.

[3] = system: brain BACE1; experiment: Brain BACE1 activity after once-a-day oral gavage (fluorometric kit); assay type: in vivo; conditions: guinea pigs, once-a-day oral administration
Excerpt: as §1, §2, §3
The brain BRACE1 activity in guinea pigs was measured by Beta secretase activity was determined using a fluorometric assay kit from Abcam (ab65357) as described by the manufacturer.

[4] = system: transgenic APPlon mice; experiment: Morris water maze test, spatial memory deficit; assay type: in vivo; conditions: E64d-doped chow for 1 month or 3 months, either age group
Excerpt: Figure 16 is not descriptive of the claimed invention. Figure 16 graphically illustrates data showing the effects of AB-007 (E64d, loxistatin)-doped chow on the spatial memory deficit that develops in transgenic APPlon (London APP) mice, see above description, and e.g. Hook, et al. (2008) supra. The Morris water maze test was used to measure the latency period, which is the time it takes an animal to swim to a submerged and not visible platform after having been previously trained as to the location of that platform. The longer the latency period, the poorer the spatial memory. Two groups of animals were evaluated, young and old mice.

[5] = 5-week stability test at 60°C; assay type: physicochemical; conditions: read-out: compound remaining
[6] = system: brain Aβ40 and brain Aβ42; conditions: guinea pig, oral 10 mg/kg/day, 7 days
[7] = system: brain Aβ(40) and Aβ(42); conditions: for Summary Aβ 40 Mean % Control / Summary Aβ 42 Mean % Control: 1 & 3 month feeding; for Aβ 40 Difference / Aβ 42 Difference: control minus treated; for Aβ 40 % Control / Aβ 42 % Control: per cent reduction in Aβ
[8] = cited from earlier work
[9] = cited from earlier work; remark: listed apart in the source
[10] = high oral doses (500 mg/kg and 1 g/kg), cited from earlier work
[11] = maximal intravenous or oral doses, rats; cited from earlier work
[12] = healthy human volunteers, oral, about 5 mg/kg/day, single or continuous 1 week; cited from earlier work
[13] = rats, cited from earlier work
[14] = oral, dogs; cited from earlier work
[15] = Old mice, 1 month feeding E64d doped chow
[16] = Old mice, 3 month feeding E64d doped chow
[17] = Young mice, 1 month feeding E64d doped chow
[18] = Young mice, 3 month feeding E64d doped chow

## CCOC(=O)[C@H]1O[C@@H]1C(=O)N[C@@H](CC(C)C)C(=O)NCCC(C)C (relative stereo) [AB-007, (2S,3S)-trans-epoxysuccinyl-L-leucyl-amido-3-methylbutane ethyl ester]
[1]
  CSF Aβ: dose response reduction
  CSF Aβ(42): dose response reduction
  brain Aβ(40): dose response reduction
  brain Aβ(42): dose response reduction
  plasma Aβ(40): dose response reduction
  plasma Aβ(42): dose response reduction
[2]
  brain cathepsin B activity: dose response reduction
[3]
  brain BACE1 activity: increase
[4]
  mean latency period relative to age-matched controls: significantly reduced
[5]
  remaining at 840 h: 99%
[6]
  reduction of brain Aβ40 relative to vehicle treated controls: 42%
  reduction of brain Aβ42 relative to vehicle treated controls: 42%
[7]; All Ages
  Summary Aβ 40 Mean % Control: 64%
  Summary Aβ 42 Mean % Control: 52%
[7]; Old mice
  Summary Aβ 40 Mean % Control: 65%
  Summary Aβ 42 Mean % Control: 42%
[7]; [15]
  Aβ 40 Mean treated: 87.1
  Aβ 42 Mean treated: 31.9
[7]; Old mice, 1 month feeding
  Aβ 40 Difference: 142.9
  Aβ 42 Difference: 26.6
  Aβ 40 % Control: 62%
  Aβ 42 % Control: 45%
[7]; [16]
  Aβ 40 Mean treated: 91.2
  Aβ 42 Mean treated: 61.3
[7]; Old mice, 3 month feeding
  Aβ 40 Difference: 195.3
  Aβ 42 Difference: 38.5
  Aβ 40 % Control: 68%
  Aβ 42 % Control: 39%
[7]; Young mice
  Summary Aβ 40 Mean % Control: 60%
  Summary Aβ 42 Mean % Control: 62%
[7]; [17]
  Aβ 40 Mean treated: 47.7
  Aβ 42 Mean treated: 5.5
[7]; Young mice, 1 month feeding
  Aβ 40 Difference: 47.5
  Aβ 42 Difference: 6
  Aβ 40 % Control: 50%
  Aβ 42 % Control: 52%
[7]; [18]
  Aβ 40 Mean treated: 38.7
  Aβ 42 Mean treated: 4.5
[7]; Young mice, 3 month feeding
  Aβ 40 Difference: 87.4
  Aβ 42 Difference: 11.7
  Aβ 40 % Control: 69%
  Aβ 42 % Control: 72%
[8]; humans
  drug accumulation: No drug accumulation
  total urinary excretion rate: about 30%
[8]; oral
  conversion in the gut to E64c (loxistatin acid): rapidly and completely converted
[9]; primary absorption site small intestine
  oral dose absorbed: about 60%
[9]; radioactive AB-007
  concentration in all other organs, including the brain: corresponding to the plasma concentration or concentrations lower than plasma
  kidneys concentration relative to plasma concentration: ~12 times
  liver concentration relative to plasma concentration: about 25 times
  time of maximum tissue concentration after administration: 0.5 h
[10]
  effect on the cardiovascular system: no effect
[10]; sedation, mild inhibition of pentetrazol-induced seizure
  effect on the central nervous system: depress the central nervous system
[11]
  influence on vision or hearing: do not influence
[12]
  hematological tests, blood chemistry, urinalyses: no changes
  pulse, blood pressure, body temperature, grip force, electrocardiogram, physician observations: no change
[13]; oral
  LD50: over 10,000 mg/kg
[13]; does not occur in other species
  hepatic injury: hepatic injury seen in rats
[14]
  LD50: > 5,000 mg/kg

## [2H]C([2H])([2H])C([2H])(CCNC(=O)[C@H](CC(C)C)NC(=O)[C@H]1O[C@@H]1C(=O)OCC)C([2H])([2H])[2H] [Compound E64d7]
[1]
  CSF Aβ: dose response reduction
  CSF Aβ(42): dose response reduction
  brain Aβ(40): dose response reduction
  brain Aβ(42): dose response reduction
  plasma Aβ(40): dose response reduction
  plasma Aβ(42): dose response reduction
[2]
  brain cathepsin B activity: dose response reduction
[3]
  brain BACE1 activity: increase
